In PubChem BioAssay AID1645862 (Buhrlage Lab, Dana-Farber Cancer Institute and Novartis …, 2021) one finds IC50 data, which are given here for 58 compounds.

The structures appear in SMILES notation. Activity calls are given as the source filed them. No rule for the calls is given here. A value given as a limit tells only on which side of the number the result lay.

In this experiment the target is Ubiquitin carboxyl-terminal hydrolase 8 (Homo sapiens) (UniProt P40818). Nature of the experiment: Ubiquitin-specific protease 8 inhibitors, concentration-effect, biochemical, validation of initial actives (AID 1645862).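 Also: potency reflects inhibition of USP8 cleavage of a ubiquitin rhodamine substrate.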 The settings on record: recombinant USP8 deubiquitinase activity assay.
Ubiquitin carboxyl-terminal hydrolase 8 (Homo sapiens), sequence (P40818 whole entry, looked up): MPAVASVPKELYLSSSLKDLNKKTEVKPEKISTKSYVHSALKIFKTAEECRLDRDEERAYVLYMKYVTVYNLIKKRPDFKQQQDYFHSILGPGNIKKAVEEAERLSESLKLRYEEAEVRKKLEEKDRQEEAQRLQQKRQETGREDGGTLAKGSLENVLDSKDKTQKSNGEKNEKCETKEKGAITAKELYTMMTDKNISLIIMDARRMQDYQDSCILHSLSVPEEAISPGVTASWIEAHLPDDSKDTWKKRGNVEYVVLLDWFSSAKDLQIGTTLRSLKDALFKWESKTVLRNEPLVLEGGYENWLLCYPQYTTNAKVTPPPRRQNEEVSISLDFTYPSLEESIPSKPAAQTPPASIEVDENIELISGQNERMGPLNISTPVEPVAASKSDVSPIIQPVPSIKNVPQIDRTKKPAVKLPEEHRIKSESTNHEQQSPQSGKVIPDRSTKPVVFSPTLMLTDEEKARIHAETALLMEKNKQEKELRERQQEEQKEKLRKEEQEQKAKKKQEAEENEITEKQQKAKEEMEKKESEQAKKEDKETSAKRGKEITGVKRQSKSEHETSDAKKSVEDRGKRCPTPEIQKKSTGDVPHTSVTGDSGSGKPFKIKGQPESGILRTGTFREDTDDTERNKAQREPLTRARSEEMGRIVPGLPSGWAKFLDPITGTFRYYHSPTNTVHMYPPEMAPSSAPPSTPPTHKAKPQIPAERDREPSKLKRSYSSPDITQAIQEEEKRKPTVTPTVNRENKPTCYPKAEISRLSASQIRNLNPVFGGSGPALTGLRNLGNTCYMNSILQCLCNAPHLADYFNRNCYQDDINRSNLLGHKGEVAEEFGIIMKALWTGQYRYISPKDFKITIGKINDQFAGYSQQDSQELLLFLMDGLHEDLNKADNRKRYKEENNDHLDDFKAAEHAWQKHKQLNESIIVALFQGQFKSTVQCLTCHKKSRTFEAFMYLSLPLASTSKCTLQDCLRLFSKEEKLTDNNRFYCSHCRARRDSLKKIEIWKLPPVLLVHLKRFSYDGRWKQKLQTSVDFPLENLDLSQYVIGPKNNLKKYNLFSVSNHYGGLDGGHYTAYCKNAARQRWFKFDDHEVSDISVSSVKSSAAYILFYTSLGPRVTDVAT
A word on the IC50: it is the concentration at which inhibition is half-maximal. For the compound `CN(C(=O)C1(c2ccccc2)CC1)c1nc2c(s1)CCc1occc1-2`, the IC50 is > 40 µM (inactive).

For the compound `COc1cc(Cl)c(C)cc1NC(=O)Cn1c(=O)n(CC(=O)NCc2ccco2)c(=O)c2ccccc21`, the IC50 was > 40 µM (inactive).

Take `CCCCCCCCCCCC1=C(O)C(=O)C=C(O)C1=O`: the IC50 was 4.69 µM.

In the case of `CCc1cccc(C)c1NC(=O)Cn1c(C(C)NC(=O)c2ccc(C)cc2)nc2ccccc21` (stereo not drawn), the IC50 is > 40 µM (inactive).

Consider `CC(C)Cc1ccc(-c2cc(-c3ccc(C(F)(F)F)cc3)c(C#N)c(=O)[nH]2)cc1`, for which the IC50 was > 40 µM (inactive).

Regarding `O=C(NCc1ccc(Br)cc1)c1cc(-c2cccnc2)n[nH]1`, the IC50 is > 40 µM (inactive).

In the case of `O=C(Nc1cccc2ccccc12)N1CCC(c2nc3c(nnn3Cc3ccc(F)cc3)c(=O)[nH]2)CC1`, the IC50 is > 40 µM (inactive).

Take `N=C1/C(=C/c2cn(Cc3ccccc3)c3ccccc23)C(=O)N=C2SC(C(F)(F)F)=NN12`: the IC50 is > 40 µM (inactive).

In the case of `O=C(/C=C/c1ccco1)N1CCC(Cn2cccn2)CC1`, the IC50 was > 40 µM (inactive).

Regarding `COc1ccc(Cn2c(=O)[nH]c3cc(C(=O)NCCCN4CCN(c5cccc(Cl)c5)CC4)ccc3c2=O)cc1`, the IC50 is > 40 µM (inactive).

In the case of `CCOc1ccc2c(c1)c(=O)c(C(=O)c1ccccc1)cn2CC(=O)Nc1ccc2c(c1)OCCO2`, the IC50 was > 40 µM (inactive).

Consider `CCOc1ccc2c(c1)c(=O)c(C(=O)c1ccccc1)cn2CC(=O)Nc1ccc(OC)cc1`, for which the IC50 was > 40 µM (inactive).

On to `Cc1nc(-c2ccc(C(=O)Nc3ccc(F)cc3)cc2)cs1`, for which the IC50 is > 40 µM (inactive).

With `Cc1ccc(CNC(=O)c2ccc3nn(CC(=O)Nc4ccccc4F)c(=O)n3c2)cc1`, the IC50 was > 40 µM (inactive).

With `COc1cccc(C(=O)Nc2nc(-c3nnn(-c4ccc(C)c(F)c4)c3C)ns2)c1`, the IC50 was > 40 µM (inactive).

With `O=C(O)C1C(C(=O)Nc2ccccc2)C2(c3ccccc3)C(=O)C1(c1ccccc1)C(c1ccccc1)=C2c1ccccc1` (stereo not drawn), the IC50 is 15.4 µM.

With `O=C(c1ccncc1)N1CCN(CC2CC=CCC2)CC1` (stereo not drawn), the IC50 is > 40 µM (inactive).

For the compound `COc1cccc(-c2cncc(C3CCN(S(=O)(=O)N(C)C)CC3)n2)c1`, the IC50 is > 40 µM (inactive).

As to `CCc1nc(SCC(=O)Nc2cc(Cl)ccc2C)c2oc3ccccc3c2n1`, the IC50 was > 40 µM (inactive).

For `OC1CCCN(c2ncc(-c3cnccn3)c(-c3cccs3)n2)C1` (stereo not drawn), the IC50 is > 40 µM (inactive).

Regarding `N#Cc1ccc(NC(=O)Nc2cccn(Cc3ccccc3F)c2=O)cc1`, the IC50 was > 40 µM (inactive).

Take `Cc1c(-c2nc(-c3ccccc3Cl)no2)nnn1-c1cccc(F)c1`: the IC50 was > 40 µM (inactive).

For the compound `O=C(CSc1nc2cc(C(F)(F)F)ccc2s1)NCC(=O)c1ccccc1`, the IC50 was > 40 µM (inactive).

As to `COc1cc2c(=O)n(CCC(=O)NC3CCCC3)c(=O)n(CC(=O)Nc3cccc(Cl)c3)c2cc1OC`, the IC50 is > 40 µM (inactive).

For `Cn1cc(C(=O)NCC2COc3ccccc3O2)c(=O)c2cc(S(=O)(=O)N3CCCCC3)ccc21` (stereo not drawn), the IC50 was > 40 µM (inactive).

With `O=C(Cn1c(=O)n(Cc2ccc3c(c2)OCO3)c(=O)c2cccnc21)Nc1ccc(F)cc1`, the IC50 was > 40 µM (inactive).

With `Cc1nc(C(=O)NC2(O)C(=O)c3ccccc3C2=O)cs1`, the IC50 is 4.23 µM.

`O=C(Cn1c(=O)[nH]c2c(-c3ccccc3)c[nH]c2c1=O)NCc1ccccc1Cl`: the IC50 is > 40 µM (inactive).

For `O=C(Cn1c(=O)c2ccccc2n(CC(=O)Nc2cccc(F)c2)c1=O)NCCc1ccccc1`, the IC50 was > 40 µM (inactive).

In the case of `O=c1cc(Cc2ccccc2)nc2c(-c3ccccc3)c(COc3ccccc3)[nH]n12`, the IC50 is > 40 µM (inactive).

In the case of `Cc1ccc(-n2nc(C(=O)Nc3ccc(C)cn3)c3ncn(C)c(=O)c32)cc1`, the IC50 was > 40 µM (inactive).

For the compound `CCOc1ccc(C(=O)CCC(=O)Nc2cccc(S(=O)(=O)Nc3cccc(Cl)c3)c2)cc1`, the IC50 is > 40 µM (inactive).

In the case of `Cc1ccccc1NC(=O)Cn1ccc2ccn(Cc3ccccc3)c2c1=O`, the IC50 is > 40 µM (inactive).

`Cc1ccc(C(=O)c2cn(CC(=O)Nc3ccccc3)c3ccc(C)cc3c2=O)cc1`: the IC50 is > 40 µM (inactive).

`COc1ccc(NC(=O)CC(=O)c2ccc([N+](=O)[O-])cc2)cc1S(=O)(=O)Nc1ccc(Br)cc1`: the IC50 was > 40 µM (inactive).

On to `Cc1ccc2[nH]c3c(=O)n(Cc4ccc(N(C)C)cc4)cnc3c2c1`, for which the IC50 is 30.7 µM.

Regarding `Cc1ccc(N2CC(c3nc4ccccc4n3CCOc3cccc(C)c3)CC2=O)cc1` (stereo not drawn), the IC50 is > 40 µM (inactive).

Consider `COc1cccc(NC(=O)c2oc3ccccc3c2NC(=O)COc2cccc(OC)c2)c1`, for which the IC50 was > 40 µM (inactive).

Take `NS(=O)(=O)c1cccc(NS(=O)(=O)c2ccc(/C=C/C(=O)OCC(=O)c3ccc(Br)cc3)cc2)c1`: the IC50 is > 40 µM (inactive).

`O=C(COc1ccc(N2CC(C(=O)NCc3ccc4c(c3)OCO4)CC2=O)cc1)Nc1ccc(F)cc1` (stereo not drawn): the IC50 was > 40 µM (inactive).

Regarding `COc1ccc(C2NC(=O)NC(C)=C2C(=O)OCC2CCCCC2)cc1OC` (stereo not drawn), the IC50 is > 40 µM (inactive).

As to `CC(c1ccccc1)N1CC(O)=C(c2nc3ccccc3s2)C1=N` (stereo not drawn), the IC50 was > 40 µM (inactive).

As to `O=C(CN1C(=O)c2ccccc2C1=O)Nc1nc(-c2ccc(Br)cc2)cs1`, the IC50 was > 40 µM (inactive).

As to `COc1cc(O)c2c(O)c3c(cc2c1)C[C@@]1(O)CC(=O)C(C(N)=O)=C(O)[C@@]1(O)C3=O`, the 50% inhibitory concentration (IC50) is 3.61 µM.

Regarding `O=C(COC(=O)c1cc2c(s1)CCC2)c1ccc2[nH]c(=O)[nH]c2c1`, the IC50 was > 40 µM (inactive).

`Cn1c(=O)[nH]c2nncnc2c1=O`: the IC50 is 20.7 µM.

On to `Cc1cc(-c2ccc(S(=O)(=O)NCc3ccc(Cl)cc3)s2)on1`, for which the IC50 was > 40 µM (inactive).

`CCCCOc1ccc(C(=O)n2ccn(S(=O)(=O)c3ccc(C)cc3)c2=O)cc1`: the IC50 is > 40 µM (inactive).

Regarding `COc1cc(OC)c(NC(=O)c2cc(-c3ccccn3)n[nH]2)cc1Cl`, the IC50 is > 40 µM (inactive).

Consider `Cc1sc2ccn(C)c(=O)c2c1C(=O)NC1CCCC1`, for which the IC50 is 2.18 µM.

Regarding `O=C(Cn1c(=O)n(CCC(=O)N2CCc3ccccc3C2)c(=O)c2ccccc21)NCc1ccccc1Cl`, the IC50 was > 40 µM (inactive).

For the compound `O=C(Cn1cc(C(=O)c2ccccc2)c(=O)c2cc(F)ccc21)Nc1ccc2c(c1)OCCO2`, the IC50 is > 40 µM (inactive).

`CCOc1ccc2cc3c(nc2c1)OC(=O)N(Cc1ccc(OC)cc1)C3`: the 50% inhibitory concentration (IC50) was 9.25 µM.

Take `COc1ccc(CNc2ccc(C(=O)OCc3ccccc3F)cc2S(=O)(=O)Nc2cccc(OC)c2)cc1`: the IC50 is > 40 µM (inactive).

Turning to `CCOc1ccc(-c2nnc(-c3cnc4onc(C5CCCC5)c4c3)o2)cc1`, the IC50 was > 40 µM (inactive).

With `CCCCCC(=O)C(CCCC)c1oc(=O)c(CCCC)c(O)c1CCCC` (stereo not drawn), the IC50 was > 40 µM (inactive).

Regarding `Cn1c(=O)n([C@@H](Cc2ccccc2)C(=O)N[C@@H](C(=O)O)c2ccc(O)cc2)c(=O)c2ccccc21`, the IC50 was > 40 µM (inactive).

With `Cc1ccc2cc(-c3noc(CCC(=O)NC4CCCC4)n3)c(=O)[nH]c2c1`, the IC50 was > 40 µM (inactive).
